Test results taken from patent US20220187282A1, “CARDIOMYOCYTE PROLIFERATION” (The Council of the Queensland Institute of Medical Research, priority 2019, published 2022).
Where two headings read alike, the source gives them in different places.

Legend:
Format in all cases: biochemical
kinases [1] = molecular target: kinases (Homo sapiens, UniProt P36897); conditions: TGFBR1 (ALK5) FRET-Lantha SP; Test Conc(μM) 1
kinases [2] = molecular target: kinases (Homo sapiens, UniProt Q9P1W9); conditions: PIM2 FRET-Z-Lyte SP; Test Conc(μM):ATP Conc(μM) 1:5
kinases [3] = molecular target: kinases (Homo sapiens, UniProt Q9BZL6); conditions: PRKD2 (PKD2) Z-Lyte SP; Test Conc(μM):ATP Conc(μM) 1:25
kinases [4] = molecular target: kinases (Homo sapiens, UniProt O43293); conditions: DAPK3 (ZIPK) FRET-Z-Lyte SP; Test Conc(μM):ATP Conc(μM) 1:5
kinases [5] = molecular target: kinases (Homo sapiens, UniProt Q8TCG2); conditions: PI4K2B *Mn* FRET-Adapta SP; Test Conc(μM):ATP Conc(μM) 1:10
kinases [6] = molecular target: kinases (Homo sapiens, UniProt Q15759); conditions: MAPK11 (p38 beta) Z-Lyte SP; Test Conc(μM):ATP Conc(μM) 1:50
kinases [7] = molecular target: kinases (Homo sapiens, UniProt P15056)
kinases [8] = molecular target: kinases (Homo sapiens, UniProt P07332); conditions: FES (FPS) FRET-Z-Lyte SP; Test Conc(μM):ATP Conc(μM) 1:25
kinases [9] = molecular target: kinases (Homo sapiens, UniProt Q16816); conditions: PHKG1 FRET-Z-Lyte SP; Test Conc(μM):ATP Conc(μM) 1:75
kinases [10] = molecular target: kinases (Homo sapiens, UniProt Q09013); conditions: DMPK FRET-Lantha SP; Test Conc(μM) 1
kinases [11] = molecular target: kinases (Homo sapiens, UniProt P68400); conditions: CSNK2A1 (CK2alpha1) Z-Lyte SP; Test Conc(μM):ATP Conc(μM) 1:5
kinases [12] = molecular target: kinases (Homo sapiens, UniProt P42681); conditions: TXK FRET-Z-Lyte SP; Test Conc(μM):ATP Conc(μM) 1:100
kinases [13] = molecular target: kinases (Homo sapiens, UniProt Q8WXR4); conditions: MYO3B FRET-Lantha SP; Test Conc(μM) 1
kinases [14] = molecular target: kinases (Homo sapiens, UniProt P42338)
kinases [15] = molecular target: kinases (Homo sapiens, UniProt P52333); conditions: JAK3 FRET-Z-Lyte SP; Test Conc(μM):ATP Conc(μM) 1:10
kinases [16] = molecular target: kinases (Homo sapiens, UniProt Q14012); conditions: CAMK1 (CaMK1) FRET-Adapta SP; Test Conc(μM):ATP Conc(μM) 1:10
kinases [17] = molecular target: kinases (Homo sapiens, UniProt P42345); conditions: FRAP1 (mTOR) *Mn* Z-Lyte SP; Test Conc(μM):ATP Conc(μM) 1:10
kinases [18] = molecular target: kinases (Homo sapiens, UniProt P45983)
kinases [19] = molecular target: kinases (Homo sapiens, UniProt P54646)
kinases [20] = molecular target: kinases (Homo sapiens, UniProt Q86UE8); conditions: TLK2 FRET-Lantha SP; Test Conc(μM) 1
kinases [21] = molecular target: kinases (Homo sapiens, UniProt Q04771); conditions: ACVR1 (ALK2) FRET-Lantha SP; Test Conc(μM) 1
kinases [22] = molecular target: kinases (Homo sapiens, UniProt P17948); conditions: FLT1 (VEGFR1) *Mn* Z-Lyte SP; Test Conc(μM):ATP Conc(μM) 1:150
kinases [23] = molecular target: kinases (Homo sapiens, UniProt Q9H4B4); conditions: PLK3 FRET-Z-Lyte SP; Test Conc(μM):ATP Conc(μM) 1:50
kinases [24] = molecular target: kinases (Homo sapiens, UniProt P08922); conditions: ROS1 FRET-Z-Lyte SP; Test Conc(μM):ATP Conc(μM) 1:50
kinases [25] = molecular target: kinases (Homo sapiens, UniProt P51813); conditions: BMX FRET-Z-Lyte SP; Test Conc(μM):ATP Conc(μM) 1:100
kinases [26] = molecular target: kinases (Homo sapiens, UniProt Q9H2K8); conditions: TAOK3 (JIK) FRET-Lantha SP; Test Conc(μM) 1
kinases [27] = molecular target: kinases (Homo sapiens, UniProt O14965); conditions: AURKA (Aurora A) Z-Lyte SP; Test Conc(μM):ATP Conc(μM) 1:10
[28] = bRAF Cascade FRET-Z-Lyte SP, Test Conc(μM):ATP Conc(μM) 1:100
[29] = bRAF FRET-Lantha SP, Test Conc(μM) 1
[30] = PIK3CB FRET-Adapta SP, Test Conc(μM):ATP Conc(μM) 1:150
[31] = PIK3CB/PIK3R2 FRET-Adapta SP, Test Conc(μM):ATP Conc(μM) 1:10
[32] = MAPK8 (JNK1) Cascade Z-Lyte SP, Test Conc(μM):ATP Conc(μM) 1:100
[33] = MAPK8 (JNK1) FRET-Lantha SP, Test Conc(μM) 1
[34] = AMPK (A2/B2/G1) FRET-Lantha SP, Test Conc(μM) 1
[35] = AMPK (A2/B2/G2) FRET-Lantha SP, Test Conc(μM) 1
[36] = AMPK A2/B1/G1 FRET-Z-Lyte SP, Test Conc(μM):ATP Conc(μM) 1:150
[37] = AMPK A2/B1/G2 FRET-Z-Lyte SP, Test Conc(μM):ATP Conc(μM) 1:10
[38] = AMPK A2/B1/G3 FRET-Z-Lyte SP, Test Conc(μM):ATP Conc(μM) 1:25
[39] = AMPK A2/B2/G3 FRET-Z-Lyte SP, Test Conc(μM):ATP Conc(μM) 1:50

Sequence of kinases (Homo sapiens, UniProt P15056) (P15056 whole entry): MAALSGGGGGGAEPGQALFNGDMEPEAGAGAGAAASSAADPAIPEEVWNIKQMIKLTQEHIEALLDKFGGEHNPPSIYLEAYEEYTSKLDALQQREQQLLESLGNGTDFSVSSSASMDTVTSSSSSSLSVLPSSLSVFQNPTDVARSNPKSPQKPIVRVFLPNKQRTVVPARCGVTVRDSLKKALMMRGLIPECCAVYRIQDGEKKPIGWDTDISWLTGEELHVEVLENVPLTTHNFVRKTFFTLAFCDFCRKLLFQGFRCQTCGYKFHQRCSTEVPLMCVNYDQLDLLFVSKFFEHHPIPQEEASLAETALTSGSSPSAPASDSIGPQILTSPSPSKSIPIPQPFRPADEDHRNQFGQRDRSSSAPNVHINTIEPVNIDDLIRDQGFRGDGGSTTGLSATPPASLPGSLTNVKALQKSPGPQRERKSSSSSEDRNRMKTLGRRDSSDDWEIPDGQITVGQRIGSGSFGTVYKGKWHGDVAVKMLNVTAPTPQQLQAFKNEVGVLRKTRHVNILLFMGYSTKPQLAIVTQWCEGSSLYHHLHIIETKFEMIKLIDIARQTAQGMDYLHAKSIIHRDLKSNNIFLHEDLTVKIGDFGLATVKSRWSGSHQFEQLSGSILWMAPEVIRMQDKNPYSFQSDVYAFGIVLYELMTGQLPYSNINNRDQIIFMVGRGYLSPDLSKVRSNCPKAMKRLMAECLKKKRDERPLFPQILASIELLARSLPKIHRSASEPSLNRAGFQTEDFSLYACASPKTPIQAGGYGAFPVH
Sequence of kinases (Homo sapiens, UniProt P42338) (P42338 whole entry): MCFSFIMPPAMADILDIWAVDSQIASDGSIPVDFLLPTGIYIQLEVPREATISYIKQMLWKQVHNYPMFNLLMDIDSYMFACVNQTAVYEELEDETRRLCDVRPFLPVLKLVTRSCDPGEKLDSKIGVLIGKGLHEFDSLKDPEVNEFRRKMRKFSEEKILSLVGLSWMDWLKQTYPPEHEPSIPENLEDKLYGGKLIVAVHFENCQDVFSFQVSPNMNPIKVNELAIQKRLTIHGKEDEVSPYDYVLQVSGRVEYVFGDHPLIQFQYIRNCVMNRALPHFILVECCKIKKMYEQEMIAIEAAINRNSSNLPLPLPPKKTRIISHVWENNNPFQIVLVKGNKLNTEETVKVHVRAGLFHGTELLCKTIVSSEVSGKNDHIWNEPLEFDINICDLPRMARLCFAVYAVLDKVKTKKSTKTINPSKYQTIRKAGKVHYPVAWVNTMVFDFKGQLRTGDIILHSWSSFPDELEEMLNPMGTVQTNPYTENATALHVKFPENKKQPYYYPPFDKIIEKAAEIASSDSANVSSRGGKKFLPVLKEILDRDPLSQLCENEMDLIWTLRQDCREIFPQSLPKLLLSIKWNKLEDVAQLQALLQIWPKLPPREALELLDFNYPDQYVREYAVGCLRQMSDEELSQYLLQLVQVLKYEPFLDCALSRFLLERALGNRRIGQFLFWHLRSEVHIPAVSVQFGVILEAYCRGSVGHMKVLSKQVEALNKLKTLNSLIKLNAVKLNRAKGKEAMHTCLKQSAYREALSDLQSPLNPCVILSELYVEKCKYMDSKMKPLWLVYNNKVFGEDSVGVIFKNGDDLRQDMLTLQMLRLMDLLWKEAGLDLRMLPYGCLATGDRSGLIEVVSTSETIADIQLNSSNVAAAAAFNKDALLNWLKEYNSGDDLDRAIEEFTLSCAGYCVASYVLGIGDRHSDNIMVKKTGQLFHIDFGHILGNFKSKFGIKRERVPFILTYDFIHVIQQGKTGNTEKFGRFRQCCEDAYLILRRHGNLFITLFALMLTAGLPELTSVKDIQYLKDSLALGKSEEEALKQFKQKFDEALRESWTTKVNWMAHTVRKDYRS
Sequence of kinases (Homo sapiens, UniProt P45983) (P45983 whole entry): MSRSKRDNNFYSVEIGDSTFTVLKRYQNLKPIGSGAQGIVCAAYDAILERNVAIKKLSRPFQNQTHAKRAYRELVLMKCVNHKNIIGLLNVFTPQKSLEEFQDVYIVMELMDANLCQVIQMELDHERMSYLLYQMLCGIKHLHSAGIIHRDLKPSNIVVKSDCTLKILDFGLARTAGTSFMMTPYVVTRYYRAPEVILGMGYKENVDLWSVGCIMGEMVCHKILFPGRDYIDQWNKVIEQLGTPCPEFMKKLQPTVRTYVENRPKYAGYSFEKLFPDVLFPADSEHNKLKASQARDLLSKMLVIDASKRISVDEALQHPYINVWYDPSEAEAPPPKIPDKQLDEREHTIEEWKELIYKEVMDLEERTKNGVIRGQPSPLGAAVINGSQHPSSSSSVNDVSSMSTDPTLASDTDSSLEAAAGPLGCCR
Sequence of kinases (Homo sapiens, UniProt P54646) (P54646 whole entry): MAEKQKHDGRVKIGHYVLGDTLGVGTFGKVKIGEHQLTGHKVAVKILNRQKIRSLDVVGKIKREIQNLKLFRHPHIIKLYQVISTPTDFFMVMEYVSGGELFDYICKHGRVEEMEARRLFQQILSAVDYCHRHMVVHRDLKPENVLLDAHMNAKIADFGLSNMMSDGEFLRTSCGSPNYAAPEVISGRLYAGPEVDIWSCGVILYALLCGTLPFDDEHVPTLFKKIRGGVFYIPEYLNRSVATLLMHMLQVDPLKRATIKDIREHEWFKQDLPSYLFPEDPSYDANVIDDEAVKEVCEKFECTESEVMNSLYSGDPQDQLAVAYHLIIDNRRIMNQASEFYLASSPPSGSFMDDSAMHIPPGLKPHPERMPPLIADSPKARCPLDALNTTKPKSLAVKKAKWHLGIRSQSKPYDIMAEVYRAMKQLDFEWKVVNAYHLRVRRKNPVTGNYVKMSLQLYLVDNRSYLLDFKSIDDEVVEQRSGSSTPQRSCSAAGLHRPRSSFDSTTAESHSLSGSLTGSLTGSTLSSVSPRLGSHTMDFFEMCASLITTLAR
Sequence of kinases (Homo sapiens, UniProt P52333) (P52333 whole entry): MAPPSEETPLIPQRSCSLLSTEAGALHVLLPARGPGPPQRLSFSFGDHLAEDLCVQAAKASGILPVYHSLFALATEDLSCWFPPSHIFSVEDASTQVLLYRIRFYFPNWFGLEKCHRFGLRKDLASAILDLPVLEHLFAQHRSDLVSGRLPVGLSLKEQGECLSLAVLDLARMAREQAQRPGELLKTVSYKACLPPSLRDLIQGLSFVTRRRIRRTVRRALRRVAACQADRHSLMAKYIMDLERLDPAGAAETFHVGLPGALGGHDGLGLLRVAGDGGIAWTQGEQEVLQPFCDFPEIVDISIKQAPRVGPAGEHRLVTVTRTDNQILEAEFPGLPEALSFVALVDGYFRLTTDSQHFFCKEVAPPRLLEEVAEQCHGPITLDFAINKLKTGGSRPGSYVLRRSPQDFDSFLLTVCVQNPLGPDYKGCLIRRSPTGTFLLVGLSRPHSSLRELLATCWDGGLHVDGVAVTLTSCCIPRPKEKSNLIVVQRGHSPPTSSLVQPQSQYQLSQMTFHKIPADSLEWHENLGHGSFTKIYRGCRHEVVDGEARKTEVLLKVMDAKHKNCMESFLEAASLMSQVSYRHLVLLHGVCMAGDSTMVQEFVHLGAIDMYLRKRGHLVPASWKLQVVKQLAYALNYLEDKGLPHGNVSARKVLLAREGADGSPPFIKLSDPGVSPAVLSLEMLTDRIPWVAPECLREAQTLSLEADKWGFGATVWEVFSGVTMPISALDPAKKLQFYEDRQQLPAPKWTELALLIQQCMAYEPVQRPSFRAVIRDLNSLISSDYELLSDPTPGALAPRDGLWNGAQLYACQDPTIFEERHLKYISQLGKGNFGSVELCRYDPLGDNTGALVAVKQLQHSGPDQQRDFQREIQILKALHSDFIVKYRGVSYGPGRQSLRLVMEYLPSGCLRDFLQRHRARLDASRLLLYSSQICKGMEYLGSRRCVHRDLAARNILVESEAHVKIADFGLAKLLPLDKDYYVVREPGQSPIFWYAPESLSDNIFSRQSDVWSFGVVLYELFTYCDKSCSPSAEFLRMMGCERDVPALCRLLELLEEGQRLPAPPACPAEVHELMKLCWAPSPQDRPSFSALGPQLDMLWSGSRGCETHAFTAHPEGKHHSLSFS
Sequence of kinases (Homo sapiens, UniProt Q16816) (Q16816 whole entry): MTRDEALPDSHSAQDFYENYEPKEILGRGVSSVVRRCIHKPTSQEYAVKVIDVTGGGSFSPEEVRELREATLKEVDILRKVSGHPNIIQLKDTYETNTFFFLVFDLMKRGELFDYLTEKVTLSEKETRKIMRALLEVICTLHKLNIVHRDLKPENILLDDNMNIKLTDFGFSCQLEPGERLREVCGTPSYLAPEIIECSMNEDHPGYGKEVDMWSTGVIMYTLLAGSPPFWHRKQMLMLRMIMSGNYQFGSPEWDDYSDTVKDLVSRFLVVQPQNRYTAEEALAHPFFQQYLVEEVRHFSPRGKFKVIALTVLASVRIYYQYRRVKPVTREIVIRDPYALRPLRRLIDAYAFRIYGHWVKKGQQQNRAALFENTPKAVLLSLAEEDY
Sequence of kinases (Homo sapiens, UniProt P42681) (P42681 whole entry): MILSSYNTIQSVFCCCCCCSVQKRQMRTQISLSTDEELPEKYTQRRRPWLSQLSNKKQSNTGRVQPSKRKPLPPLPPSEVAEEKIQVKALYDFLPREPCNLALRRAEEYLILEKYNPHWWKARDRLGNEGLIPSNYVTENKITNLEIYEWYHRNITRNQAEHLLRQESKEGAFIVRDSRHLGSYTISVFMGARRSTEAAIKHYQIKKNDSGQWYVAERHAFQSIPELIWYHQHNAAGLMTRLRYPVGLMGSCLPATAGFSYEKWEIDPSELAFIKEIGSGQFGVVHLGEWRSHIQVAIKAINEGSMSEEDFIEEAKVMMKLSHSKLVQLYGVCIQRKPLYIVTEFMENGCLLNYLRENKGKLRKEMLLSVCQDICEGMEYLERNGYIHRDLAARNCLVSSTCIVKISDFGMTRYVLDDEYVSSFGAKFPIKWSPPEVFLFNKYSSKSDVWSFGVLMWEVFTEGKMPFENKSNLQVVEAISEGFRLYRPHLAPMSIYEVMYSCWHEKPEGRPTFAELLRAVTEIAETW

## Cc1cc(Oc2ccnc(Nc3ccc(S(N)(=O)=O)cc3)c2)c(-c2ccccn2)nc1C [compound 65]
Kinases [1]
  Mean Inhib (%): 99.6%
Kinases [2]
  Mean Inhib (%): 3.7%
Kinases [3]
  Mean Inhib (%): 21.2%
Kinases [4]
  Mean Inhib (%): −11.8%
Kinases [5]
  Mean Inhib (%): 1.8%
Kinases [6]
  Mean Inhib (%): 21.2%
Kinases [7]; [28]
  Mean Inhib (%): 16.7%
Kinases [7]; [29]
  Mean Inhib (%): 10.4%
Kinases [8]
  Mean Inhib (%): 6.3%
Kinases [9]
  Mean Inhib (%): −6.4%
Kinases [10]
  Mean Inhib (%): 0.5%
Kinases [11]
  Mean Inhib (%): 2.4%
Kinases [12]
  Mean Inhib (%): 44.8%
Kinases [13]
  Mean Inhib (%): 4.1%
Kinases [14]; [30]
  Mean Inhib (%): −2.3%
Kinases [14]; [31]
  Mean Inhib (%): −4.7%
Kinases [15]
  Mean Inhib (%): −7.8%
Kinases [16]
  Mean Inhib (%): 7.3%
Kinases [17]
  Mean Inhib (%): −8.8%
Kinases [18]; [32]
  Mean Inhib (%): 16.9%
Kinases [18]; [33]
  Mean Inhib (%): 7.0%
Kinases [19]; [34]
  Mean Inhib (%): −1.2%
Kinases [19]; [35]
  Mean Inhib (%): 1.4%
Kinases [19]; [36]
  Mean Inhib (%): 2.9%
Kinases [19]; [37]
  Mean Inhib (%): −6.7%
Kinases [19]; [38]
  Mean Inhib (%): −5.2%
Kinases [19]; [39]
  Mean Inhib (%): −4.3%
Kinases [20]
  Mean Inhib (%): −4.8%
Kinases [21]
  Mean Inhib (%): 88.2%
Kinases [22]
  Mean Inhib (%): 2.7%
Kinases [23]
  Mean Inhib (%): −4.9%
Kinases [24]
  Mean Inhib (%): 8.9%
Kinases [25]
  Mean Inhib (%): 18.7%
Kinases [26]
  Mean Inhib (%): 1.7%
Kinases [27]
  Mean Inhib (%): 7.2%

## Cc1ccc(NC(=O)c2ccnc(N3CCOCC3)c2)cc1Nc1ccnc(N2CC(C)OC(C)C2)n1 (stereo not shown) [compound 3]
Kinases [1]
  Mean Inhib (%): 5.3%
Kinases [2]
  Mean Inhib (%): −0.3%
Kinases [3]
  Mean Inhib (%): 1.5%
Kinases [4]
  Mean Inhib (%): 3.3%
Kinases [5]
  Mean Inhib (%): −15.8%
Kinases [6]
  Mean Inhib (%): 47.6%
Kinases [7]; [28]
  Mean Inhib (%): 10.3%
Kinases [7]; [29]
  Mean Inhib (%): 66.8%
Kinases [8]
  Mean Inhib (%): 10.0%
Kinases [9]
  Mean Inhib (%): −3.8%
Kinases [10]
  Mean Inhib (%): 7.1%
Kinases [11]
  Mean Inhib (%): 6.1%
Kinases [12]
  Mean Inhib (%): 5.1%
Kinases [13]
  Mean Inhib (%): 3.9%
Kinases [14]; [30]
  Mean Inhib (%): −5.2%
Kinases [14]; [31]
  Mean Inhib (%): 8.0%
Kinases [15]
  Mean Inhib (%): 7.2%
Kinases [16]
  Mean Inhib (%): −9.9%
Kinases [17]
  Mean Inhib (%): 0.7%
Kinases [18]; [32]
  Mean Inhib (%): 6.5%
Kinases [18]; [33]
  Mean Inhib (%): −6.1%
Kinases [19]; [34]
  Mean Inhib (%): −0.8%
Kinases [19]; [35]
  Mean Inhib (%): −1.1%
Kinases [19]; [36]
  Mean Inhib (%): −3.5%
Kinases [19]; [37]
  Mean Inhib (%): 11.4%
Kinases [19]; [38]
  Mean Inhib (%): 7.8%
Kinases [19]; [39]
  Mean Inhib (%): 3.8%
Kinases [20]
  Mean Inhib (%): −2.9%
Kinases [21]
  Mean Inhib (%): 2.3%
Kinases [22]
  Mean Inhib (%): 11.5%
Kinases [23]
  Mean Inhib (%): 5.8%
Kinases [24]
  Mean Inhib (%): 10.0%
Kinases [25]
  Mean Inhib (%): 7.2%
Kinases [26]
  Mean Inhib (%): 0.3%
Kinases [27]
  Mean Inhib (%): −2.7%
